{
  "source": "BindingDB's records for patent US10556914",
  "about": "(ABBVIE INC.; ABBVIE DEUTSCHLAND GMBH & CO. KG, 2020)",
  "data": [
    {"target": "Gamma-aminobutyric acid type B receptor subunit 1/2 (UniProt O88871+Q9Z0U4)", "sequence (Q9Z0U4 whole entry)": "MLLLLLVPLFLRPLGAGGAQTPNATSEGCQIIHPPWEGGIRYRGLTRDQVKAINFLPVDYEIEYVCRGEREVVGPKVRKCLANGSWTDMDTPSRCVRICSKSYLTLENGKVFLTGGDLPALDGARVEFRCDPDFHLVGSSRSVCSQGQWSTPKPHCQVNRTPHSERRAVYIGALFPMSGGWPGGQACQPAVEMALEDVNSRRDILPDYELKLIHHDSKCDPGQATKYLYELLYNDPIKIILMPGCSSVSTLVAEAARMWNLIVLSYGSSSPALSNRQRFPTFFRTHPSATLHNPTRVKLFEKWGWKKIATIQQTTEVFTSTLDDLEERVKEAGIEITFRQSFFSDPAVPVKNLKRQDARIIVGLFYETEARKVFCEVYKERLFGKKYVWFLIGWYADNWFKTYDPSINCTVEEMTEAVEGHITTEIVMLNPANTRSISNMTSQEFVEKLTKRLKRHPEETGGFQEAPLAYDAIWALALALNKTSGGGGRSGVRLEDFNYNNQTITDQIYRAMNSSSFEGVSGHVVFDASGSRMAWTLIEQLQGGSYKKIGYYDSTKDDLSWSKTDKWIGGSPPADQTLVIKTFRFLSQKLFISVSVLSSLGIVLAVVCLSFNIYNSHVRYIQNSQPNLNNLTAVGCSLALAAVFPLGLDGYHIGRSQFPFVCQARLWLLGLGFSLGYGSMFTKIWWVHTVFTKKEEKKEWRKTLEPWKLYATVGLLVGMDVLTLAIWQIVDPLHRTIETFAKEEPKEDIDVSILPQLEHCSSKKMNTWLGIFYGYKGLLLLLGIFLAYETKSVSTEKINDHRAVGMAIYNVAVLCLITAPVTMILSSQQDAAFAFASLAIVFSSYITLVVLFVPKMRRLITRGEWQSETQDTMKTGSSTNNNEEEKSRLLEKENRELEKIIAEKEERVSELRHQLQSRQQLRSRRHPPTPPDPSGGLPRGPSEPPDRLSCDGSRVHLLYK", "sequence (O88871 whole entry)": "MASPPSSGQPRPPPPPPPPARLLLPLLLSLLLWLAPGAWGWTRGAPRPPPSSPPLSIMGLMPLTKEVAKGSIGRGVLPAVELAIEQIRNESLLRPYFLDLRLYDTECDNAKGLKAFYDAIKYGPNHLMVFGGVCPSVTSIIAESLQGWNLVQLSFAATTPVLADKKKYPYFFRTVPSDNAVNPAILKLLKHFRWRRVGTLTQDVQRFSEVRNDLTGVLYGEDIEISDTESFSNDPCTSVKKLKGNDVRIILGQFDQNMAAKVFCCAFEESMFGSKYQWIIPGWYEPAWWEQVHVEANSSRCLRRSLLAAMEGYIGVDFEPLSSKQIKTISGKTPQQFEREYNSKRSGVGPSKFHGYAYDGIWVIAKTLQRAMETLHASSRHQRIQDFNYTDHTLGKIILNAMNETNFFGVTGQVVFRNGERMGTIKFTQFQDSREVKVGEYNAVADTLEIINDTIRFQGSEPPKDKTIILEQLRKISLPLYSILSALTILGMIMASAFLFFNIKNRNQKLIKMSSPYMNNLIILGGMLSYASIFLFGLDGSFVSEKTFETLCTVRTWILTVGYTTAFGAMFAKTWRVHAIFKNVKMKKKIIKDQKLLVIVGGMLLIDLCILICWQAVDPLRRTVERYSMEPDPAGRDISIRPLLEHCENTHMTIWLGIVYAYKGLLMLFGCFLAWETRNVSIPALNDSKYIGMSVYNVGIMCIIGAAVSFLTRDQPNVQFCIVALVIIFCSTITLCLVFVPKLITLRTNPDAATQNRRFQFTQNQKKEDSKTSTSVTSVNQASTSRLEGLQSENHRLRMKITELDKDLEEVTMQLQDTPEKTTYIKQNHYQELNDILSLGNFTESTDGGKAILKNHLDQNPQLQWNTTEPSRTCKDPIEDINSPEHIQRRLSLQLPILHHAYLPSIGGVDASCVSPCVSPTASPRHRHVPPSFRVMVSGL", "experiment": "Binding Assay", "protocol": "The samples were incubated at room temperature for 60 minutes on a shaker. The incubation was stopped by rapid vacuum filtration over glass-fiber filter plates (UniFilter-96 well, GF/B membrane plates, PerkinElmer) using a 96-well plate harvester (TOMTEK Harvester). The UniFilter plate was washed five times with ice-cold wash buffer (50 mM Tris-HCl buffer, pH 7.7, 10 mM MgCl2, and 100 mM NaCl. After filtration the plate was dried for 90 minutes at 55° C. The plates were closed on the bottom with black sealing membranes, and liquid scintillation cocktail (35 μL, Betaplate Scint, PerkinElmer) was added to each well. After sealing the top of the plate, an additional incubation step of 90 minutes at room temperature followed before measuring the plate. The amount of membrane-bound [35S]GTPgS was measured using a 96-well plate reader (Microbeta , PerkinElmer).", "units": {"EC50": "µM"}, "values": [
      {"smiles": "CC(=O)Nc1cccc(-c2nn(Cc3ccc(Cl)cc3)c(=O)c3c(C(C)C)noc23)c1", "note": "[US10556914, Example 96]", "EC50": 2.59},
      {"smiles": "COc1c(NC(C)=O)cccc1-c1nn(C(C)c2ccc(Cl)cc2)c(=O)c2c(C)noc12", "note": "(stereo not drawn) [US10556914, Example 33]", "EC50": "> 10"},
      {"smiles": "COc1ccc(OC)c(-c2nn(Cc3ccc(Cl)cc3)c(=O)c3c(C(C)C)noc23)c1", "note": "[US10556914, Example 13]", "EC50": 3.54}
    ]}
  ]
}
